What was measured:
[1] = Metabolic stability in liver microsomes; details: Mouse liver microsomes, after 60 min of incubation
Description: (§2) The final concentration of the substrate in the incubation system was 1 µM, and the incubation time was 60 min. Sampling was performed at 0 min, 5 min, 15 min, 30 min, and 60 min. The reaction was stopped with glacial acetonitrile containing an internal standard (testosterone-d3 at a concentration of 10 ng/mL). Verapamil was used as a positive control. […] The natural logarithm of the remaining percentage was subjected to linear fitting with time to determine the elimination rate constant (k).

in vitro [2] = details: monkey, liver microsomes
Description: as §2

SNU-5 = test: Activity in cell strains with high expression of efflux pump proteins, cell viability assay; assay type: cell-based; details: Homo sapiens, SNU-5 cells, 96 h
Description: (§1) Three types of cells used for evaluating the activity of the compounds of the present disclosure against a cell strain with high expression of efflux pump proteins were all purchased from Nanjing Cobioer Biosciences Co., Ltd., and all the cells were derived from ATCC (American Type Culture Collection). Various tumor cells were cultured until the cell confluency reached 80%-90%, with cell viability above 90% as determined by trypan blue exclusion. Then, the cells were plated. Specifically, after cell density optimization, 75 µL of each of three cell suspensions of SNU-5, HCT-15, and AsPc-1 cells (3000 cells/well) was inoculated into a BeyoGold™ ultra-low attachment black clear-bottom 96-well plate (Cat. No.: FULA965-24pcs), and the plate was incubated overnight in a cell incubator at 37 °C with carbon dioxide. The next day, after the cells adhered to the wall, 75 µL of the compounds diluted with the corresponding culture media were added. Specifically, the compounds were serially diluted at a 5-fold gradient starting from the highest concentration of 1 µM, with a final DMSO concentration of 1‰, and the test compounds were then added to the cell culture plate. The plate was incubated in an incubator at 37 °C with 5% carbon dioxide for 96 h. Before measurement, the CellTiter-Lumi™ luminescent cell viability assay reagent was equilibrated to room temperature in the dark. Then, 50 µL of the CellTiter-Lumi™ (Cat. No.: C0065XL) cell viability assay reagent was added to each well of the 96-well plate. The plate was shaken in the dark on a shaker at 300 rpm for 10 min to ensure complete cell lysis. After the reaction was completed, the chemiluminescence intensity was measured on a multi-mode microplate reader. The cell viability inhibition rate was determined according to the chemiluminescence intensity. Then, a cell viability curve was generated by Graphpad Prism 8.0, and the IC50 values were calculated. Table 3. Activity of the compounds of the present disclosure in cell strains with high expression of efflux pump proteins (IC50 value)

HCT-15 = test: as above; assay type: cell-based; details: Homo sapiens, HCT-15 cells, 96 h
Description: as §1

AsPc-1 = test: as above; assay type: cell-based; details: Homo sapiens, ASPC1, AsPc-1 cells, 96 h
Description: as §1

[3] = Metabolic stability in liver microsomes; details: Human liver microsomes, after 60 min of incubation
Description: as §2

in vitro [4] = details: mouse, liver microsomes
Description: as §2

[5] = Metabolic stability in liver microsomes; details: Monkey liver microsomes, after 60 min of incubation
GSPT1 protein = molecular target: T1, GSPT1 protein (Homo sapiens, UniProt P15170+Q96SW2); test: GSPT1 protein degradation, Nano-Glo HiBiT assay in HiBiT-GSPT1 HEK293T cells; assay type: cell-based; details: 24 h
T1 construct: An HiBiT protein tag was added to the N-terminus of the endogenous GSPT1 protein of HEK293T cells by CRISPR gene editing technology; endogenous in cells; host or cells: HEK293T (CRISPR knock-in HiBiT-GSPT1 cell strain)
T1 sequence (P15170 whole entry): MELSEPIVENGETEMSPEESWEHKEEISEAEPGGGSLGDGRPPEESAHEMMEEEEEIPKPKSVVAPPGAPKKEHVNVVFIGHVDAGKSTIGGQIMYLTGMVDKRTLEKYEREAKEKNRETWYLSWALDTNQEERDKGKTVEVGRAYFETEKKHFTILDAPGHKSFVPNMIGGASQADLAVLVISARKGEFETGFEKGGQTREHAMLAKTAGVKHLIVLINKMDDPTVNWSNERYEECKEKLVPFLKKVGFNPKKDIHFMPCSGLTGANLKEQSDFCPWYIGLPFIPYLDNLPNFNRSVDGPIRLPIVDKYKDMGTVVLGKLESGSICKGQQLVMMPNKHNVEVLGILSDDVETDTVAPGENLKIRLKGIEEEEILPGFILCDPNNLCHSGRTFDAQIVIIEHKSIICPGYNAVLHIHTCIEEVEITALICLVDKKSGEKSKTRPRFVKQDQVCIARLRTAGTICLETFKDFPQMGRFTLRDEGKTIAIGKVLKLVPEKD
T1 sequence (Q96SW2 whole entry): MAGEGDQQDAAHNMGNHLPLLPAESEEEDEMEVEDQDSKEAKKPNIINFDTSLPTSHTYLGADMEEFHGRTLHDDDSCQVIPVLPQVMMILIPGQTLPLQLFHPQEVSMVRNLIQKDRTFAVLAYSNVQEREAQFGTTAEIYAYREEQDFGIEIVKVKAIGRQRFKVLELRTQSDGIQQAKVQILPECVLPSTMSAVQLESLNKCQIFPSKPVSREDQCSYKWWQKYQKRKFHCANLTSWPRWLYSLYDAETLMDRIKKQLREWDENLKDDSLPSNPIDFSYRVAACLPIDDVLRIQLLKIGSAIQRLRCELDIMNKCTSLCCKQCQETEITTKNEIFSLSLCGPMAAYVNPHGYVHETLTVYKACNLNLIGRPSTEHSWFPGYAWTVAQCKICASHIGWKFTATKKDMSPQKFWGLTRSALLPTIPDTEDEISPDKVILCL
T1 sequence (Q16531 whole entry partner): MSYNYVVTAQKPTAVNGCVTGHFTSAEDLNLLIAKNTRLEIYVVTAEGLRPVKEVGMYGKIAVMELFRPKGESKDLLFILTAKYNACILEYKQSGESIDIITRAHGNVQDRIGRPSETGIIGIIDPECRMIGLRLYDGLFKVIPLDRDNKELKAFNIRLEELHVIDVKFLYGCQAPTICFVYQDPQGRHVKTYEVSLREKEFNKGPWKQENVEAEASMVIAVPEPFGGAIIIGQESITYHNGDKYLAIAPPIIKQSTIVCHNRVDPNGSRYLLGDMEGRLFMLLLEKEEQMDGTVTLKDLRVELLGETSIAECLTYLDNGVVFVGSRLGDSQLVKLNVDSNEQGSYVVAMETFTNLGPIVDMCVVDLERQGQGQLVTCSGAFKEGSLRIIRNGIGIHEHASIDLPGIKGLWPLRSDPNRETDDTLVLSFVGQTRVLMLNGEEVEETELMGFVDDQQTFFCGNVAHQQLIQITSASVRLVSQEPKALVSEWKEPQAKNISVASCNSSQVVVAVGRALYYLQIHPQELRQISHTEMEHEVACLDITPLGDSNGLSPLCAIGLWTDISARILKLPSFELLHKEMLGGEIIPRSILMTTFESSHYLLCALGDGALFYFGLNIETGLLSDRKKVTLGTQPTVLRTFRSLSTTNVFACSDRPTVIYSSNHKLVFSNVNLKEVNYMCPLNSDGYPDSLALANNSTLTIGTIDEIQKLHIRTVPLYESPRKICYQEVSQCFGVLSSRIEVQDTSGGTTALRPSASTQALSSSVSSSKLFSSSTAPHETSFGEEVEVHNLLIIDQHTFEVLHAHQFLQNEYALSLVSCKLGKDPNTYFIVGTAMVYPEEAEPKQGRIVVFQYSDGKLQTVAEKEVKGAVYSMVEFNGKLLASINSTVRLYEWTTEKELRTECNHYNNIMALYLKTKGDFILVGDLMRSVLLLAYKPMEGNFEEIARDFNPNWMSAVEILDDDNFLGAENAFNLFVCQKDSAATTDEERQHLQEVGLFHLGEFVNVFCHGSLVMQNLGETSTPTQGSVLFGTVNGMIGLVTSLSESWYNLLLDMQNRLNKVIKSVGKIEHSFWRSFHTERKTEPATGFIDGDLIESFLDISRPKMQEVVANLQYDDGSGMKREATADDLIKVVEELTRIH
Description: This experiment was performed to evaluate the targeting property of the compounds. An HiBiT protein tag was added to the N-terminus of the endogenous GSPT1 protein of HEK293T cells by CRISPR gene editing technology, so as to construct a HiBiT-GSPT1 HEK293T stably transfected cell strain. HiBiT-GSPT1 HEK293T cells were cultured in DMEM containing 10% FBS and 1% PenStrep. When the cell confluency reached 80%-90%, the cells were digested with trypsin, pipetted into single cells, and resuspended in a corresponding culture medium to form a cell suspension. The cells were counted using Cell Countess (NanoEnTek, #Cat. EVE-MC2), and the cell viability was determined by trypan blue exclusion to ensure that the cell viability was above 90%. The cells were plated in a 384-well plate (Corning, #Cat. 3764) at 10,000 cells/40 µL of cell suspension per well, and cultured in an incubator at 37 °C with 5% CO2 overnight. The next day, the test compounds were added to the 384-well plate under conditions of 30 µM highest concentration, 5-fold serial dilution, and 1‰ DMSO. The plate was incubated in the incubator at 37 °C with 5% CO2 for another 24 h. Before measurement, the Nano-Glo HiBiT reagent was equilibrated to room temperature, the LgBiT protein was diluted with the Nano-Glo HiBiT Lytic buffer according to a dilution ratio of 1:100, and the Nano-Glo@HiBiT Lytic substrate was diluted to an appropriate volume according to a ratio of 1:50. After the cell culture plate was equilibrated at room temperature for 10 min, 40 µL of Nano-Glo HiBiT Lytic assay reagent was added to each well. The plate was shaken on a microplate shaker at a rotation speed of 300 rpm for 3 min in the dark. After the reaction was completed, the luminescencevalues were read on BMG PHERASTAR FS (BMG LRBTECH, Cat. No.: PHERAstar FSX), and the DC50 values were calculated using GraphPad Prism 8.0. Table 2. GSPT1 protein degradation

in vitro [6] = details: human, liver microsomes
Description: as §2

For `O=C1CCC(N2Cc3cc(CNC(=O)Nc4ccc(CCCOC5CCCNC5)c(Cl)c4)ccc3C2=O)C(=O)N1` (stereo not shown) [Compound B19], the “Parent drug remaining %” value [1] was 92.8%, the CLint scaled at 1 µM (in vitro [2]) was 11.3 mL/min/kg and the half-life at 1 µM (in vitro [2]) was 3 h. The IC50 (SNU-5) was less than 50 nM, the IC50 (HCT-15) was 200 to 1000 nM and the IC50 (AsPc-1) was 50 to 200 nM. The “Parent drug remaining %” value [3] was 80.5%, the CLint scaled at 1 µM (in vitro [4]) was 17 mL/min/kg and the half-life at 1 µM (in vitro [4]) was 5.48 h. For the same compound, the “Parent drug remaining %” value [5] was 77.7%, the DC50 (GSPT1 protein) was 66.2 nM and the CLint scaled at 1 µM (in vitro [6]) was 5.8 mL/min/kg. The half-life at 1 µM (in vitro [6]) was 5 h.

Reference: patent EP4667463A1, “DOMIDE MOLECULAR GLUE DERIVATIVE AND USE THEREOF” (CSPC Megalith Biopharmaceutical Co., Ltd., priority 2023, dated 2024)
